Measurements reported in patent publication US10017535B2, “Amphiphilic compounds with neuroprotective properties” (USTAV ORGANICKE CHEMIE A BIOCHEMIE AV CR, v.v.i., priority 2014, dated 2018).
Read-outs that look alike come from different tables or passages of the source.

Target: T1, NR1-1a/NR2B NMDA receptor (Rattus norvegicus, UniProt P35439+Q00960)
T1 construct: expressed in transfected cells; host or cells: HEK293 cells (ATCC CRL1573)
Assay: Patch-clamp inhibition of glutamate-evoked currents at recombinant NMDA receptors in transfected HEK293 cells
Format: cell-based
Description: Transfected cells were identified by means of fluorescent green protein (GFP) fluorescence. Its genus was transfected together with the both receptor subunit genes.
Steroid-containing solutions were prepared from fresh solution (20 mmol·l^−1, of steroid dissolved in dimethyl sulfoxide, DMSO), which was added to the extracellular solution containing 1 mmol·l^−1 glutamic acid and 10 μmol·l^−1 of glycine. Identical concentrations of DMSO were added to all other extracellular solutions.
Current responses produced by extracellular application of glutamic acid solution (1 mmol·l^−1) were measured from the whole cell by patch-clamp technique, which is used for the study of transport of charged particles through model and also natural biological membranes. The currents were measured at membrane potential maintained at −60 mV and +60 mV.
Same amounts (0.3 μg) of cDNA coding NR1, NR2 and GFP (green fluorescent protein) (pQBI 25, Takara, Japan) were mixed with 0.9 μl of Matra-A Reagent (IBA, Göttingen, Germany) and added to confluent HEK293 cells cultivated in v 24-pit cultivating plate. After trypsination, the cells were re-suspended in Opti-MEM® I containing 1% fetal bovine serum. Subsequently, 20 mmol·l^−1 MgCl2, 1 mmol l^−1 D,L-2-amino-5-phosphonopentanoic acid, 3 mmol·l^−1 kynurenic acid was added to the mixture and cells were inoculated on the polylysine-coated glass plates having 25 mm in diameter. The following genes coding NMDA receptor subunits were used for transfection: NR1-1 a (GenBank accession No. U08261) and NR2B (GenBank accession No. M91562).
HEK293 Cultured cells were used for electrophysiological investigations with a latency of 16-40 h after transfection. Whole-cell currents were measured by patch-clamp amplifier (Axopatch 1D; Axon Instruments, Inc. Foster City, USA) after capacitance and serial resistance (<10 MΩ) compensation to 80-90%. Agonist-induced responses were filtered to 1 kHz (8-pole Bessel filter; Frequency Devices, Haverhill, USA), digitized with sampling frequency of 5 kHz and analyzed by pClamp version 9 software (Axon Instruments, USA). […] Extracellular solution (ECS) contained 160 mmol·l^−1 sodium chloride, 2.5 mmol·l^−1 potassium chloride, 10 mmol·l^−1 HEPES, 10 mmol·l^−1 glucose, 0.2 mmol·l^−1 EDTA a 0.7 mmol·l^−1 calcium chloride (pH adjusted to 7.3 by sodium hydroxide solution). Glycine was added to both testing and control solution. Moreover, bicuculline (10 μmol·l^−1) and tetrodotoxin (0.5 μmol·l^−1) was added to hippocampal cultures. Steroid-containing solutions were prepared from fresh solution (20 mmol·l^−1) of steroid dissolved in dimethyl sulfoxide (DMSO). Same concentrations of DMSO were used in all extracellular solutions. Control and experimental solutions were applied via microprocessor-controlled perfusion system with approx. rate of solution exchange in areas adjacent to cells reaching ˜10 ms.
Current responses produced by 100 μmol·l^−1 of NMDA (in the case of hipocampal neurones), or by 1 mmol·l^−1 of glutamate (on recombinant NMDA receptors) were measured at membrane potential maintained at −60 mV. […] Relative effect of steroid-induced inhibition was used for calculating IC50.

[1] = calculated from relative steroid-induced inhibition, Hill's coefficient 1.2, read-out: IC50
[2] = HEK293, steroid concentration 50 μmol·l^−1, 1 mmol·l^−1 glutamate, −60 mV, read-out: Mean % change ± SD
[3] = HEK293, read-out: Mean % change ± SD

T1 sequence (Q00960 27-1482, other chains not shown): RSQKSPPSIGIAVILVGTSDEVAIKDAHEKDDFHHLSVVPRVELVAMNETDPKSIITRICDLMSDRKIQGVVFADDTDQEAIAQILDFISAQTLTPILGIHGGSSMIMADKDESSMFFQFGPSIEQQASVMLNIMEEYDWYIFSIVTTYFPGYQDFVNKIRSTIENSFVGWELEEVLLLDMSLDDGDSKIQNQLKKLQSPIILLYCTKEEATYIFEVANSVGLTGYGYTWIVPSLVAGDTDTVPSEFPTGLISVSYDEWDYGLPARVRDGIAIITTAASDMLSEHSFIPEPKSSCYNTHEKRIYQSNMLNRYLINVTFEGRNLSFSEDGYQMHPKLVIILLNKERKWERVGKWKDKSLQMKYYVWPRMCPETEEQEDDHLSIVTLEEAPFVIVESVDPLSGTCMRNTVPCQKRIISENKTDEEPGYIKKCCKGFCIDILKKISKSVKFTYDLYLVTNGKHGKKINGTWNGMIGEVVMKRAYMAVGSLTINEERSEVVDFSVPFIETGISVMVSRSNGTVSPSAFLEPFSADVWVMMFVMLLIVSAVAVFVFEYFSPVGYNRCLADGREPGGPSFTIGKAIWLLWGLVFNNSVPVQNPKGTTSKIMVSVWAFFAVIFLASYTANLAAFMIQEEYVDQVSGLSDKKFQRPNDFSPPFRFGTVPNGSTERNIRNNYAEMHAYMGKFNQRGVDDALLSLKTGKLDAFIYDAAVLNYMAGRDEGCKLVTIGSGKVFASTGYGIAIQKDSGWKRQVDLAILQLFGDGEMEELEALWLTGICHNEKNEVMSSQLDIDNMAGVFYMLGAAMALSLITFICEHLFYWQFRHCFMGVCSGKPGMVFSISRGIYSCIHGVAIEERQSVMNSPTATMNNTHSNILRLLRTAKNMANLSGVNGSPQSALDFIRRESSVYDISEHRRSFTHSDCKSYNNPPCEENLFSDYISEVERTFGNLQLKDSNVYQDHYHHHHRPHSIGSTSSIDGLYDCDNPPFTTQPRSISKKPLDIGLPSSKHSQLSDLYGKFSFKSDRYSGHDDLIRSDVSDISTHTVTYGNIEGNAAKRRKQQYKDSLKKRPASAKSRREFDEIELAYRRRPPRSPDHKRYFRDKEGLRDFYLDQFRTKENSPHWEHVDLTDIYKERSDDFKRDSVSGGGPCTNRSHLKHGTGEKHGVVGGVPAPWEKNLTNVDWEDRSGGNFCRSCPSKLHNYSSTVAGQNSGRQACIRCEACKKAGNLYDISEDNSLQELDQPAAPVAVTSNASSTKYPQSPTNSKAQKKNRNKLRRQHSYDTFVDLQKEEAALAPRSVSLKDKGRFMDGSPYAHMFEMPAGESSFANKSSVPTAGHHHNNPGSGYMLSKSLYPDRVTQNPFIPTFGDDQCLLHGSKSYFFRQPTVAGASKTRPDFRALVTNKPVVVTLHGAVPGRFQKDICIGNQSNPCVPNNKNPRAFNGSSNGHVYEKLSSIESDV

With `C[C@]12CC[C@@H](OS(=O)(=O)O)C[C@H]1CC[C@H]1CCCC[C@@H]12.c1ccncc1` [Compound 8, Pyridinium (2R,4aS,4bS,8aR,10aR)-4a-methyltetradecahydrophenanthren-2-yl 2-Sulfate] the IC50 [1] was 28.3 µM and the “Mean % change ± SD” value (steroid concentration 100 μmol·l^−1, 1 mmol·l^−1 glutamate, −60 mV) was 78.3 ± 5.5%.

Work on `COC[C@@]1(C)CC[C@H]2[C@@H](CC[C@@H]3C[C@H](OS(=O)(=O)O)CC[C@@]32C)[C@@H]1C` [Compound 18, Pyridinium (2R,4aS,4bS,7S,8S,8aS,10aR)-7-(methoxymethyl)-4a,7,8-trimethyltetra-decahydrophenanthren-2-yl 2-sulfate] yielded an inhibition at 50 µM [2] of 60.5 ± 4.6% and an IC50 [1] of 33 µM.

In the case of `COC[C@@]1(C)CC[C@H]2[C@@H](CC[C@@H]3C[C@H](OC(=O)CCC(=O)O)CC[C@@]32C)C1C` (stereo partly drawn) [Compound 19, 4-(((2R,4aS,4bS,7S,8aS,10aR)-7-(methoxymethyl)-4a,7,8-trimethyltetradecahydrophenanthren-2-yl)oxy)-4-oxobutanoic acid], the inhibition at 50 µM [2] is reported as 47.4 ± 4.3% and the IC50 [1] is reported as 55 µM.

Work on `COC(=O)C1(C)CCC2C(CCC3CC(OS(=O)(=O)O)CCC32C)C1C` [Compound 22, Pyridinium (2R,4aS,7S,8S,10aR)-7-(methoxycarbonyl)-4a,7,8-trimethyltetra-decahydrophenanthren-2-yl 2-sulfate] yielded an inhibition at 100 µM (HEK293, steroid concentration 100 μmol·l^−1, 1 mmol·l^−1 glutamate, −60 mV, read-out: Mean % change ± SD) of 40.9 ± 6.1% and an IC50 [1] of 74.6 µM.

`C[C@@H]1CC[C@H]2[C@@H](CC[C@@H]3C[C@H](OS(=O)(=O)O)CC[C@@]32C)C1` [Compound 35, Pyridinium (2R,4aS,4bS,7R,8aS,10aR)-4a,7-dimethyltetradecahydrophenanthren-2-yl 2-sulfate] gave an inhibition at 50 µM [2] of 85 ± 1.2% and an IC50 [1] of 12 µM.

Work on `COC(=O)[C@@]1(C)CC[C@H]2[C@@H](CC[C@@H]3C[C@H](OS(=O)(=O)O)CC[C@@]32C)C1` [Compound 40, Methyl (2S,4aS,4bS,7R,8aR,10aS)-2,4b-dimethyl-7-(sulfooxy)tetradecahydrophenanthren-2-carboxylate] yielded an inhibition at 50 µM [2] of 14.4 ± 1.8% and an IC50 [1] of 224 µM.

In the case of `C[C@@]12CCC[C@H]1[C@@H]1CC[C@@H]3C[C@H](OS(=O)(=O)O)CC[C@]3(C)[C@H]1CC2.c1ccncc1` [Compound 49, Pyridinium (3R,5R,8S,9S,10S,13S,14S)-10,13-dimethylhexadecahydro-1H-cyclopenta[a]phenanthren-3-yl 3-sulfate], the IC50 [1] is reported as 2.1 µM and the “Mean % change ± SD” value (steroid concentration 2 μmol·l^−1, 1 mmol·l^−1 glutamate, −60 mV) is reported as 49.2 ± 6.6%.

`C[C@@]12CCC[C@H]1[C@@H]1CC[C@@H]3C[C@H](OC(=O)C(=O)O)CC[C@]3(C)[C@H]1CC2` [Compound 50, 2-(((3R,5R,8S,9S,10S,13S,14S)-10,13-Dimethylhexadecahydro-1H-cyclopenta[a]phenanthren-3-yl)oxy)-2-oxoethanoic acid] showed an inhibition at 10 µM [3] of 64 ± 7% and an IC50 [1] of 6.3 µM.

With `C[C@@]12CCC[C@H]1[C@@H]1CC[C@@H]3C[C@H](OC(=O)CC(=O)O)CC[C@]3(C)[C@H]1CC2` [Compound 51] the inhibition at 10 µM [3] was 42 ± 14% and the IC50 [1] was 15.5 µM.

Compound `C[C@@]12CCC[C@H]1[C@@H]1CC[C@@H]3C[C@H](OC(=O)CCC[N+](C)(C)C)CC[C@]3(C)[C@H]1CC2` [Compound 62, 4-(((3R,5R,8S,9S,10S,13S,14S)-10,13-Dimethylhexadecahydro-1H-cyclopenta[a]-phenanthren-3-yl)oxy)-N,N,N-trimethyl-4-oxobutan-1-ammonium chloride] has an inhibition at 1 µM [3] of 34 ± 5% and an IC50 [1] of 1.7 µM.

With `C[C@]12CC[C@@H](OC(=O)CCC(=O)O)C[C@H]1CC[C@@H]1[C@@H]2CC[C@]2(C)C=CC[C@@H]12` [Compound 64, 4-(((3R,5R,8R,9S,10S,13R,14S)-10,13-Dimethyl-2,3,4,5,6,7,8,9,10,11,12,13,14,15-tetra-decahydro-1H-cyclopenta[a]phenanthren-3-yl)oxy)-4-oxobutanoic acid] the inhibition at 10 µM [3] was 45.9 ± 11.7% and the IC50 [1] was 12.9 µM.

`C[C@]12CC[C@@H](OC(=O)CC(=O)O)C[C@H]1CC[C@@H]1[C@@H]2CC[C@]2(C)C=CC[C@@H]12` [Compound 65, 3-(((3R,5R,8R,9S,10S,13R,14S)-10,13-Dimethyl-2,3,4,5,6,7,8,9,10,11,12,13,14,15-tetradecahydro-1H-cyclopenta[a]phenanthren-3-yl)oxy)-3-oxopropanoic acid] was tested, and the inhibition at 10 µM [3] was 44 ± 11% and the IC50 [1] was 13.5 µM.

In the case of `C=C1CC[C@H]2[C@@H]3CC[C@@H]4C[C@H](OC(=O)C[N+](C)(C)C)CC[C@]4(C)[C@H]3CC[C@]12C` [Compound 76, 2-(((3R,5R,8R,9S,10S,13S,14S)-10,13-Dimethyl-17-methylenehexadecahydro-1H-cyclopenta[a]phenanthren-3-yl)oxy)-N,N,N-trimethyl-2-oxoethan-1-ammonium chloride], the inhibition at 50 µM [3] is reported as 50 ± 10% and the IC50 [1] is reported as 51.7 µM.

With `C/C=C1/CC[C@H]2[C@@H]3CC[C@@H]4C[C@H](OC(=O)CCCC(=O)O)CC[C@]4(C)[C@H]3CC[C@]12C` [Compound 85, 5-(((3R,5R,8R,9S,10S,13S,14S,Z)-17-Ethylidene-10,13-dimethylhexadecahydro-1H-cyclopenta[a]phenanthren-3-yl)oxy)-5-oxopentanoic acid] the inhibition at 50 µM [3] was 59.4 ± 7.8% and the IC50 [1] was 38.4 µM.

In the case of `C[C@]12CC[C@@H](OS(=O)(=O)O)C[C@H]1CC[C@@H]1[C@@H]2CC[C@]2(C)[C@@H](I)CC[C@@H]12` [Compound 93, Pyridinium (3R,5R,8R,9S,10S,13S,14S,17S)-17-iodo-10,13-dimethylhexadecahydro-1H-cyclopenta[a]phenanthren-3-yl 3-sulfate], the inhibition at 5 µM [3] is reported as 90.5 ± 2.2% and the IC50 [1] is reported as 0.8 µM.

Work on `C[C@]12CC[C@@H](OS(=O)(=O)O)C[C@H]1CC[C@@H]1[C@@H]2CC[C@@]2(C)[C@H]1CCC2(F)F` [Compound 95, Pyridinium (3R,5R,8R,9S,10S,13S,14S)-17,17-difluoro-10,13-dimethylhexadecahydro-1H-cyclopenta[a]phenanthren-3-yl 3-sulfate] yielded an IC50 of 7 µM and an inhibition at 10 µM [3] of 61.2 ± 5.1%.

`C[C@]12CC[C@@H](OS(=O)(=O)O)C[C@H]1CC[C@@H]1[C@@H]2CC[C@@]2(C)[C@H]1CC[C@@]21CO1` [Compound 97, Pyridinium (3R,5R,8R,9S,10S,13S,14S,17S)-10,13-dimethylhexadecahydrospiro-[cyclopenta[a]phenanthren-17,2′-oxiran]-3-yl 3-sulfate] gave an inhibition at 100 µM [3] of 78 ± 8.9% and an IC50 [1] of 45 µM.

For `CC12CCCCC1C1CCC3CC(OS(=O)(=O)O)CCC3(C)C1CC2` [Compound 101, Pyridinium (2R,4aS,4bS,6aS,10bS,6aS,12aR)-4a,6a-dimethyloctadecahydrochrysen-2-yl 2-sulfate], the inhibition at 5 µM (HEK293, steroid concentration 5 μmol·l^−1, 1 mmol·l^−1 glutamate, −60 mV, read-out: Mean % change ± SD) was 69.1 ± 5.9% and the IC50 [1] was 2.3 µM.

Work on `C=C1C[C@H]2[C@@H]3CC[C@@H]4C[C@H](OS(=O)(=O)O)CC[C@]4(C)[C@H]3CC[C@]2(C)C1` [Compound 114, Pyridinium (3R,5R,8S,9S,10S,13R,14S)-10,13-dimethyl-16-methylenhexadekhydro-1H-cyclopenta[a]phenanthren-3-yl 3-sulfate] yielded an inhibition at 3 µM [3] of 59.1 ± 3.8% and an IC50 [1] of 2.1 µM.

`C[C@@]12CCC[C@H]1[C@H]1CC[C@H]3C[C@H](OS(=O)(=O)O)CC[C@]3(C)[C@@H]1CC2.c1ccncc1` [Compound 127, Pyridinium (3R,5S,8R,9R,10S,13S,14S)-10,13-dimethylhexadecahydro-1H-cycopenta[a]phenanthren-3-yl 3-sulfate] was tested, and the IC50 [1] was 1.7 µM and the “Mean % change ± SD” value (steroid concentration 3 μmol·l^−1, 1 mmol·l^−1 glutamate, −60 mV) was 34.0 ± 5.0%.

Compound `C[C@@]12CCC[C@H]1[C@@H]1CC[C@@H]3C[C@H](N4CC(C(=O)O)CC4=O)CC[C@]3(C)[C@H]1CC2` (stereo partly drawn) [Compound 131, 1-((3R,5R,8S,9S,10S,13S,14S)-10,13-Dimethylhexadecahydro-1H-cyclopenta[a]phenanthren-3-yl)-5-oxopyrrolidine-3-carboxylic acid] has an inhibition at 10 µM [3] of 34.7 ± 7.2% and an IC50 [1] of 17.7 µM.
